Data as given in ChEMBL document CHEMBL1201862, “PubChem BioAssay data set” (2004).
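96-well plates; 48 h exposure; 5 concentrations. Endpoints by linear interpolation between flanking doses. Not reached: highest tested concentration assigned. GI50 is the concentration that inhibits growth by half.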 The source made the active and inactive calls. No stated cut-off is given here; in the data, active = GI50 up to about 1.1 µM and inactive = higher.

How the values were obtained:
Assay in all cases: growth of human tumour cells (NCI), 48 h
SF-295 = tested on: SF-295
UO-31 = tested on: UO-31
OVCAR-8 = tested on: OVCAR-8
Malme-3M = tested on: Malme-3M
MCF7 = tested on: MCF7
SNB-75 = tested on: SNB-75
SN12C = tested on: SN12C
A498 = tested on: A498
786-0 = tested on: 786-0
NCI-H23 = tested on: NCI-H23
CAKI-1 = tested on: CAKI-1
OVCAR-4 = tested on: OVCAR-4
HCT-116 = tested on: HCT-116
RPMI-8226 = tested on: RPMI-8226
NCI-H226 = tested on: NCI-H226
SK-OV-3 = tested on: SK-OV-3
DU-145 = tested on: DU-145
SK-MEL-5 = tested on: SK-MEL-5
PC-3 = tested on: PC-3
MDA-N = tested on: MDA-N
HT-29 = tested on: HT-29
SK-MEL-28 = tested on: SK-MEL-28
RXF 393 = tested on: RXF 393
UACC-257 = tested on: UACC-257
MOLT-4 = tested on: MOLT-4
HOP-92 = tested on: HOP-92
SNB-19 = tested on: SNB-19
NCI-H460 = tested on: NCI-H460
HCT-15 = tested on: HCT-15
CCRF-CEM = tested on: CCRF-CEM
T47D = tested on: T47D
M14 = tested on: M14
SF-268 = tested on: SF-268
A549 = tested on: A549
MDA-MB-231 = tested on: MDA-MB-231
NCI-H522 = tested on: NCI-H522
K562 = tested on: K562
OVCAR-5 = tested on: OVCAR-5
SR = tested on: SR
HOP-62 = tested on: HOP-62
ACHN = tested on: ACHN
HL-60 = tested on: HL-60
EKVX = tested on: EKVX
KM12 = tested on: KM12
HCC 2998 = tested on: HCC 2998
Hs-578T = tested on: Hs-578T
TK-10 = tested on: TK-10
SK-MEL-2 = tested on: SK-MEL-2
UACC-62 = tested on: UACC-62
LOX IMVI = tested on: LOX IMVI
OVCAR-3 = tested on: OVCAR-3
SF-539 = tested on: SF-539
SW-620 = tested on: SW-620
IGROV-1 = tested on: IGROV-1
NCI/ADR-RES = tested on: NCI/ADR-RES
MDA-MB-435 = tested on: MDA-MB-435
COLO 205 = tested on: COLO 205
U-251 = tested on: U-251
BT-549 = tested on: BT-549

C=C(CN(CC)CC)C1(c2ccccc2)CC2(CCCC2)C(=O)O1 (stereo unspecified)
GI50 (SF-295): > 100 µM (inactive) | GI50 (UO-31): > 100 µM (inactive) | GI50 (OVCAR-8): > 100 µM (inactive) | GI50 (Malme-3M): > 100 µM (inactive) | GI50 (MCF7): > 100 µM (inactive) | GI50 (SNB-75): 33 µM (inactive) | GI50 (SN12C): > 100 µM (inactive) | GI50 (A498): > 100 µM (inactive) | GI50 (786-0): > 100 µM (inactive) | GI50 (NCI-H23): 33 µM (inactive) | GI50 (CAKI-1): > 100 µM (inactive) | GI50 (OVCAR-4): > 100 µM (inactive) | GI50 (HCT-116): 38.3 µM (inactive) | GI50 (RPMI-8226): 76.2 µM (inactive) | GI50 (NCI-H226): 48 µM (inactive) | GI50 (SK-OV-3): > 100 µM (inactive) | GI50 (DU-145): > 100 µM (inactive) | GI50 (SK-MEL-5): 68.4 µM (inactive) | GI50 (PC-3): 67 µM (inactive) | GI50 (MDA-N): > 100 µM (inactive) | GI50 (HT-29): 24.2 µM (inactive) | GI50 (SK-MEL-28): > 100 µM (inactive) | GI50 (RXF 393): > 100 µM (inactive) | GI50 (UACC-257): 34.4 µM (inactive) | GI50 (MOLT-4): 53.1 µM (inactive) | GI50 (HOP-92): 28.6 µM (inactive) | GI50 (SNB-19): > 100 µM (inactive) | GI50 (NCI-H460): 68.7 µM (inactive) | GI50 (HCT-15): > 100 µM | GI50 (CCRF-CEM): > 100 µM (inactive) | GI50 (T47D): > 100 µM (inactive) | GI50 (M14): 45.5 µM (inactive) | GI50 (SF-268): > 100 µM (inactive) | GI50 (A549): > 100 µM (inactive) | GI50 (MDA-MB-231): > 100 µM (inactive) | GI50 (NCI-H522): 35 µM (inactive) | GI50 (K562): > 100 µM (inactive) | GI50 (OVCAR-5): > 100 µM (inactive) | GI50 (SR): > 100 µM (inactive) | GI50 (HOP-62): > 100 µM (inactive) | GI50 (ACHN): > 100 µM (inactive) | GI50 (HL-60): 40.6 µM (inactive) | GI50 (EKVX): > 100 µM (inactive) | GI50 (KM12): > 100 µM (inactive) | GI50 (HCC 2998): > 100 µM (inactive) | GI50 (Hs-578T): > 100 µM (inactive) | GI50 (TK-10): > 100 µM (inactive) | GI50 (SK-MEL-2): > 100 µM (inactive) | GI50 (UACC-62): > 100 µM (inactive) | GI50 (LOX IMVI): > 100 µM (inactive) | GI50 (OVCAR-3): 82 µM (inactive) | GI50 (SF-539): > 100 µM (inactive) | GI50 (SW-620): > 100 µM (inactive) | GI50 (IGROV-1): > 100 µM (inactive) | GI50 (NCI/ADR-RES): 11.1 µM (inactive) | GI50 (MDA-MB-435): > 100 µM (inactive) | GI50 (COLO 205): 55 µM (inactive) | GI50 (U-251): > 100 µM (inactive)

NS(=O)(=O)c1cc(S(N)(=O)=O)c(NC(=O)N(c2ccccc2)c2ccccc2)c(Cl)c1Cl
GI50 (SF-295): 30.2 µM (inactive) | GI50 (UO-31): 20.2 µM (inactive) | GI50 (OVCAR-8): 13.2 µM (inactive) | GI50 (MCF7): 35 µM (inactive) | GI50 (SN12C): 19.5 µM (inactive) | GI50 (786-0): 30.1 µM (inactive) | GI50 (NCI-H23): 20 µM (inactive) | GI50 (CAKI-1): 21.4 µM (inactive) | GI50 (OVCAR-4): 27.4 µM (inactive) | GI50 (HCT-116): 38.7 µM (inactive) | GI50 (RPMI-8226): 15.3 µM (inactive) | GI50 (NCI-H226): 18.9 µM (inactive) | GI50 (SK-OV-3): 24 µM (inactive) | GI50 (SK-MEL-5): 14.1 µM (inactive) | GI50 (PC-3): 24 µM (inactive) | GI50 (MDA-N): 24.7 µM (inactive) | GI50 (HT-29): 19.5 µM (inactive) | GI50 (SK-MEL-28): 34.4 µM (inactive) | GI50 (UACC-257): 10.4 µM (inactive) | GI50 (MOLT-4): 12.4 µM (inactive) | GI50 (HOP-92): 1.72 µM (inactive) | GI50 (SNB-19): 40.4 µM (inactive) | GI50 (NCI-H460): 34.9 µM (inactive) | GI50 (HCT-15): 20.3 µM | GI50 (CCRF-CEM): 1.98 µM (inactive) | GI50 (M14): 15.7 µM (inactive) | GI50 (SF-268): 42.2 µM (inactive) | GI50 (A549): 31.8 µM (inactive) | GI50 (MDA-MB-231): 33 µM (inactive) | GI50 (NCI-H522): 13.2 µM (inactive) | GI50 (K562): 20.1 µM (inactive) | GI50 (OVCAR-5): 42.1 µM (inactive) | GI50 (SR): 18.4 µM (inactive) | GI50 (ACHN): 23.2 µM (inactive) | GI50 (HL-60): 24.8 µM (inactive) | GI50 (BT-549): 15.9 µM (inactive) | GI50 (EKVX): 19.1 µM (inactive) | GI50 (KM12): 20.3 µM (inactive) | GI50 (HCC 2998): 19.2 µM (inactive) | GI50 (Hs-578T): 17.2 µM (inactive) | GI50 (TK-10): 32.7 µM (inactive) | GI50 (SK-MEL-2): 22.6 µM (inactive) | GI50 (UACC-62): 26.2 µM (inactive) | GI50 (LOX IMVI): 12.5 µM (inactive) | GI50 (OVCAR-3): 18.5 µM (inactive) | GI50 (SW-620): 29.9 µM (inactive) | GI50 (IGROV-1): 8.13 µM (inactive) | GI50 (NCI/ADR-RES): 19 µM (inactive) | GI50 (MDA-MB-435): 21.5 µM (inactive) | GI50 (COLO 205): 22.9 µM (inactive) | GI50 (U-251): 24.3 µM (inactive)

COc1cc(C(=O)N2CCN(C(=O)c3cc(OC)c(OC)c(OC)c3)C2=S)cc(OC)c1OC
GI50 (UO-31): 0.234 µM (active) | GI50 (RPMI-8226): 3.66 µM (inactive)
